Reference: publication PMC5738391, “Three classes of ligands each bind to distinct sites on the orphan G protein-coupled receptor GPR84” (Scientific Reports, 2017)

How the values were obtained:
[1] = parameters: method as in PMID 17164373; settings: cited from earlier work
[2] = molecular target: GPR84-Cys^352Ile Gαi2 fusion protein (Homo sapiens, UniProt Q9NQS5); assay: [3H]G9543 radioligand binding (saturation and displacement), GPR84-Cys352Ile Gαi2 fusion protein; parameters: Cys352Ile Gαi2 (fusion partner, same polypeptide); expressed in transfected cells; host or cells: membranes of Flp-In T-REx 293 cells, doxycycline-induced; settings: displacement assay
Sequence of GPR84-Cys^352Ile Gαi2 fusion protein (Q9NQS5 2-396): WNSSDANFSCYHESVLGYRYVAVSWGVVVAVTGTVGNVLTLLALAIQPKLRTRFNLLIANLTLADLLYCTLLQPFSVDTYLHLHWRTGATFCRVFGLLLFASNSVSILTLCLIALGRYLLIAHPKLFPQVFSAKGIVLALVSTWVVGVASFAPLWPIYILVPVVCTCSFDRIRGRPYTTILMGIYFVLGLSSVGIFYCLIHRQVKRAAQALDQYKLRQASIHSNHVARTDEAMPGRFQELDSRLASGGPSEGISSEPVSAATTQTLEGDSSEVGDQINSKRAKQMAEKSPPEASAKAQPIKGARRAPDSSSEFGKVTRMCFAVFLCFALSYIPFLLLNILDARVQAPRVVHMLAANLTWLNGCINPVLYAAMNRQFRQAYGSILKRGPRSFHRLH
Protocol: [^3H]G9543 is an analog of compounds 104, 107 and 161 with the same characteristic 2-(substituted-alkoxy)-9-substituted-6,7-dihydro-pyrimido[6,1-a]isoquinolin-4-one chemotype. […] Binding was initiated by the addition of membranes (5 µg of protein per tube). All assays were performed at 25 °C for 1 h before termination by the addition of ice-cold phosphate-buffered saline and vacuum filtration through GF/C glass filters using a 24-well Brandel cell harvester (Alpha Biotech, Glasgow, UK). Each reaction tube was washed three times with ice-cold PBS. The filters were allowed to dry for 2–3 h and then placed in 3 ml of Ultima Gold^TM XR. Radioactivity was quantified by liquid scintillation spectrometry. Specific binding was defined as the difference between binding detected in the presence and absence of 1 µM compound 104.
All data are presented as means ± SEM of at least three independent experiments. Data analysis and curve fitting was carried out using the GraphPad Prism software package version 5.0b (GraphPad, San Diego). For functional assays the concentration-response data were plotted on a log axis, with the untreated vehicle control plotted at 1 log unit lower than the lowest ligand concentration, and fitted to a three parameter sigmoidal curve with the Hill slope constrained to equal 1. In case of inhibition experiments with antagonists an equivalent analysis was followed to fit an inverse sigmoidal curve. To perform the statistical analysis of curve parameters, data from multiple experiments were fitted independently and resulting curve fit values were analysed with indicated tests. For radioligand binding data, saturation binding curves were generated by fitting the specific binding, which was obtained by subtracting non-specific from total binding, to a one site specific binding model that allows calculation of Kd values for the radioligand at wild type and mutant receptors. To determine affinity of unlabelled ligands, data obtained in displacement assays were fit to an inverse three parameter sigmoidal curve constrained by radioligand affinity and concentration to allow for Ki calculation.

[3] = tested on: GPR84-Gαi2 fusion protein; assay: [35S]GTPγS binding, membranes expressing GPR84-Gαi2 fusion protein; assay type: biochemical, human; settings: wild type GPR84-Gαi2 fusion, pertussis toxin 24 h
Excerpt: The only previous study[3] designed to explore the mode of binding of ligands to GPR84 employed a fusion protein[31],[32] in which the G protein Gαi1 was linked in-frame to the C-terminal tail of GPR84. […] These studies indicate that following pertussis toxin treatment of cells expressing the GPR84-Cys^352Ile Gαi2 fusion protein all agonist-induced binding of [^35S]GTPγS reflects incorporation of nucleotide into the receptor-linked G protein α subunit.
Membranes were generated from Flp-In T-REx HEK293 cells treated with 100 ng/mL doxycycline to induce expression of the receptor construct of interest. Cells were washed with ice-cold phosphate-buffered saline, removed from dishes by scraping and centrifuged at 3000 rpm for 5 min at 4 °C. Pellets were resuspended in TE buffer (10 mM Tris-HCl, 0.1 mM EDTA; pH 7.5) containing a protease inhibitor mixture (Roche Applied Science, West Sussex, UK) and homogenized with a 5 ml hand-held homogenizer. This material was centrifuged at 1500 rpm for 5 min at 4 °C and the supernatant was further centrifuged at 50000 rpm for 45 min at 4 °C. The resulting pellet was resuspended in TE buffer and protein content was assessed using a BCA protein assay kit (Pierce, Fisher Scientific, Loughborough, UK).
Initially, 5 μg of generated membrane protein was pre-incubated for 15 min at 25 °C in assay buffer (20 mM HEPES, 5 mM MgCl2; 160 mM NaCl; 1 μM GDP; 0.05% fatty acid-free bovine serum albumin; pH 7.5) containing the indicated ligand concentrations. […] The reaction was then initiated with addition of [^35S]GTPγS (50 nCi per tube), and the reaction was terminated after 45 minutes incubation at 30 °C by rapid filtration through GF/C glass filters using a 24-well Brandel cell harvester (Alpha Biotech, Glasgow, UK). Unbound radioligand was removed from filters by three washes with ice-cold phosphate buffered saline (pH 7.4) and filters were dried for 2–3 h at room temperature. Dried filters were added to 3 mL of Ultima Gold^TM XR (PerkinElmer Life Sciences, Beaconsfield, UK) and [^35S]GTPγS binding was determined by liquid scintillation spectrometry.

[4] = molecular target: T1, human GPR84 (FLAG-hGPR84-eYFP) (Homo sapiens, UniProt Q9NQS5); assay: HTRF-based cAMP inhibition assay in Flp-In T-REx 293 cells expressing FLAG-hGPR84-eYFP; assay type: cell-based; settings: 100 μM of each MCFA
T1 construct: expressed in transfected cells
T1 sequence (Q9NQS5 whole entry): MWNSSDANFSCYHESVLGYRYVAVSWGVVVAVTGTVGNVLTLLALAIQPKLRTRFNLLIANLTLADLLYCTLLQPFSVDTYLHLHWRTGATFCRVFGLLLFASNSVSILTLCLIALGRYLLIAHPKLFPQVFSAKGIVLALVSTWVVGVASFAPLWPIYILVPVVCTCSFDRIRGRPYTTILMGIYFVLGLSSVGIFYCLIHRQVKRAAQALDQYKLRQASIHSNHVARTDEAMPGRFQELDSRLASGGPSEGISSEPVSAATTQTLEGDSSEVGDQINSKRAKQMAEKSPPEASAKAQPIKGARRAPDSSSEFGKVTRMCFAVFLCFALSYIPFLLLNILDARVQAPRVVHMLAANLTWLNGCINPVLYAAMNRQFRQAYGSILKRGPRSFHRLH
Protocol: For the assay cells were plated at 5000 cells/well in low-volume 384-well plates. The ability of agonists to inhibit 1 μM forskolin-induced cAMP production was assessed following a co-incubation for 30 min with agonist compounds.

[5] = oral dosing to women of up to 1000 mg of indole-3-carbinol

| SMILES | clearance from plasma ([1]; after oral indole-3-carbinol) | peak plasma level of DIM [1, 5] | time to peak plasma level of DIM [1, 5] [h] | ability to compete with [3H]G9543 binding [2] | response after pertussis toxin pre-treatment [3] | capacity to inhibit forskolin-amplified levels of cAMP, compared among MCFAs of chain length C9-C14 [4] |
| --- | --- | --- | --- | --- | --- | --- |
| c1ccc2c(Cc3c[nH]c4ccccc34)c[nH]c2c1 [DIM, 3,-3′-diindolylmethane] | rapidly cleared | 500–600 ng/ml and approximately 2 μM | ≤ 2 | neither C10 nor DIM was able to compete effectively | all but eliminated |  |
| CCCCCCCCCC(=O)O [C10, decanoic acid] |  |  |  | neither C10 nor DIM was able to compete effectively |  | produced the largest effect |
